The values that follow are results of earlier work, collected in patent US10736322B2, “Aqueous concentrated herbicidal compositions containing glyphosate salts and dicamba salts” (priority 2012, dated 2020).

The conditions of the series: 25° C.

As for `O=C(O)CNCP(=O)(O)O` [Glyphosate acid, N-(phosphonomethyl)glycine], the solubility in water was 1.16 wt. %.
